Test results as given in patent US10544110B2, “Small molecule inhibitors of the nuclear translocation of androgen receptor for the treatment of castration-resistant prostate cancer” (University of Pittsburgh-Of the Commonwealth System of …, priority 2013, dated 2020).
Values joined by “and” are separate entries in the source; they are usually repeats but may differ in a detail not shown here. Equal entries are not always repeated.

Experiments:
[1] = system: AR transcriptional activity (PSA promoter activity); assay: PSA luciferase assay in C4-2-PSA-rl cells (Dual-Glo luciferase system); conditions: for IC50 / activity in PSA luciferase assay (in words): C4-2-PSA-rl cells; for IC50: 24 h treatment, 1 nM R1881, mean and SD of 2-6 independent experiments; for activity in PSA luciferase assay (in words): up to 25 μM
Procedure: C4-2-PSA-rl cells were seeded in 24-well plates such that they reached 75-80% cell monolayer density after 24 h. […] Each compound was tested in at least two independent experiments. Luciferase activity was assayed using the Dual-Luciferase® Reporter Assay System (Promega) using LMax II Microplate Reader (Molecular Devices). The luciferase assay results were acquired using SoftMax Pro5.45 software (Molecular Devices) and analyzed using GraphPad Prism. PSA6.1-luc activity was normalized to the Renilla luciferase activity. Relative luciferase activity was calculated as the quotient of androgen-induced PSA-firefly/Renilla luciferase activity. Since PSA promoter activity correlates to AR transcriptional activity, inhibition of AR will result in decreased PSA-luciferase activity.

LNCaP xenograft tumors = assay: LNCaP xenograft tumor growth; format: in vivo; conditions: castrated SCID mice, oral gavage 10 or 75 mg/kg or IP 10 mg/kg, started 2 weeks after castration
Procedure: FIG. 12 is a graph showing the effect of compound JJ-450 at indicated concentrations and administration route on LNCaP xenograft tumor volume. JJ-450 was administered 6 times, from Monday to Saturday, every week
LNCaP xenograft tumors were established in SCID mice by subcutaneous injection of 2×10^6 cells in Matrigel. Once the tumors reached ˜200 ul in volume, the mice were castrated and randomized into 4 groups: oral gavage of vehicle (n=6), oral gavage at 10 mg/kg (n=6), IP injection at 10 mg/kg (n=8), and oral gavage at 75 mg/kg (n=7) groups. Administration of JJ-450 was started 2 weeks after castration. Tumor volumes were measured twice every week. […] Error bars, SEM.

22Rv 1 xenograft tumors = assay: 22Rv1 xenograft tumor growth; format: in vivo; conditions: castrated SCID mice, daily IP 10 mg/kg and 75 mg/kg
Procedure: FIG. 11 is a graph showing the effect of compound JJ-450 at indicated concentrations on 22Rv 1 xenograft tumor volume. JJ-450 was injected i.p. daily.
22Rv 1 xenograft tumors were established in SCID mice by subcutaneous injection of 2×10^6 cells in Matrigel. Once the tumors reached ˜150 μL in volume, the mice were castrated and randomized into 3 groups for daily IP injection of vehicle (n=11), 10 mg/kg (n=11) and 75 mg/kg (n=11) groups. Injection of JJ-450 was initiated at time of castration. Tumor volumes were measured 3 times every week. […] Error bars, SEM.

22Rv1 = assay: Effectiveness against androgen-dependent prostate cancer cell line 22Rv1; format: cell-based

Compound | IC50 ([1]; 24 h) [µM] | activity in PSA luciferase assay (in words) [1] | further results
Cc1ccc(Cl)cc1N1CCN(C(=O)[C@@H]2C[C@@H]2c2ccc(F)cc2)CC1 (racemic) [JJ-450, (4-(5-Chloro-2-methylphenyl)piperazin-1-yl)((1RS,2SR)-2-(4-fluorophenyl)cyclopropyl)-methanone] | 2.7 ± 1.1 | significantly more potent than 1 | LNCaP xenograft tumor growth (tumor volume) (LNCaP xenograft tumors): significantly inhibited tumor growth; 22Rv1 xenograft tumor growth (tumor volume) (22Rv 1 xenograft tumors): significantly inhibited tumor growth
Cc1ccccc1N1CCN(CCSCc2c(C)noc2C)CC1 [Compound 6, 3,5-Dimethyl-4-(((2-(4-(o-tolyl)piperazin-1-yl)ethyl)thio)methyl)isoxazole] | 10.8 |  | increase in activity relative to amide 5b ([1]; amine 6 vs amide 5b): 1.3 fold
Cc1ccccc1N1CCN(C(=O)CSCc2ccccc2)CC1 [Compound 7, 2-(Benzylthio)-1-(4-(o-tolyl)piperazin-1-yl)ethanone] | 14 |  | IC50 [1]: 13.7 ± 0.8 µM
Cc1ccccc1N1CCN(C(=O)CCCc2ccccc2)CC1 [Compound 8, 4-Phenyl-1-(4-(o-tolyl)piperazin-1-yl)butan-1-one] | 14 |  | IC50 [1]: 14.4 ± 3.7 µM
Cc1ccccc1N1CCN(C(=O)CSc2ccccc2)CC1 [Compound 9, 2-(Phenylthio)-1-(4-(o-tolyl)piperazin-1-yl)ethan-1-one] | > 25 | abolished activity | 
Cc1ccccc1N1CCN(C(=O)C#Cc2ccccc2)CC1 [Compound 10, 3-Phenyl-1-(4-(o-tolyl)piperazin-1-yl)prop-2-yn-1-one] | 20.3 ± 11.6 | essentially inactive | 
Cc1ccccc1N1CCN(C(=O)/C=C/c2ccccc2)CC1 [Compound 11, (E)-3-Phenyl-1-(4-(o-tolyl)piperazin-1-yl)prop-2-en-1-one] | > 25 | essentially inactive | 
Cc1ccccc1N1CCN(C(=O)C[S+]([O-])Cc2c(C)noc2C)CC1 (stereo not shown) [Compound 12, 2-(((3,5-Dimethylisoxazol-4-yl)methyl)sulfinyl)-1-(4-(o-tolyl)piperazin-1-yl)ethan-1-one] | > 25 | inactive | 
Cc1ccccc1N1CCN(C(=O)CS(=O)(=O)Cc2c(C)noc2C)CC1 [Compound 13, 2-(((3,5-Dimethylisoxazol-4-yl)methyl)sulfonyl)-1-(4-(o-tolyl)piperazin-1-yl)ethan-1-one] | 16.1 |  | 
Cc1ccccc1N1CCN(C(=O)/C=C\c2ccccc2)CC1 [Compound 14, (Z)-3-Phenyl-1-(4-(o-tolyl)piperazin-1-yl)prop-2-en-1-one] | 12.7 |  | 
Cc1ccccc1N1CCN(C(=O)C2CC2c2ccccc2)CC1 (stereo not shown) [Compound 15, (2-Phenylcyclopropyl)(4-(o-tolyl)piperazin-1-yl)methanone] | 2.9 | significantly more potent than 1 | 
Cc1ccccc1N1CCN(C(=O)COCc2c(C)noc2C)CC1 [Compound 18a, 2-((3,5-Dimethylisoxazol-4-yl)methoxy)-1-(4-(o-tolyl)piperazin-1-yl)ethan-1-one] | > 25 | abolished activity | 
Cc1ccccc1N1CCN(C(=O)CN(C)Cc2ccccc2)CC1 [Compound 18b, 2-(Benzyl(methyl)amino)-1-(4-(o-tolyl)piperazin-1-yl)ethanone] | > 25 | abolished activity | 
Cc1ccccc1N1CCN(S(=O)(=O)CSCc2c(C)noc2C)CC1 [Compound 18c, 3,5-Dimethyl-4-(((((4-(o-tolyl)piperazin-1-yl)sulfonyl)methyl)thio)methyl)isoxazole] | 7.2 |  | 
Cc1ccccc1N1CCN(C(=O)NCSCc2c(C)noc2C)CC1 [Compound 20a, N-((((3,5-Dimethylisoxazol-4-yl)methyl)thio)methyl)-4-(o-tolyl)piperazine-1-carboxamide] | > 25 | inactive | 
Cc1ccccc1N1CCC(OC(=O)NCSCc2c(C)noc2C)CC1 [Compound 20b] | > 25 | inactive | 
Cc1ccccc1C1CC2CCC(C1)N2C(=O)CSCc1c(C)noc1C (stereo not drawn) [Compound 26a, 2-(((3,5-Dimethylisoxazol-4-yl)methyl)thio)-1-(3-endo-(o-tolyl)-8-azabicyclo[3.2.1]octan-8-yl)ethanone] |  |  | IC50 [1]: 8 µM and 7.7 µM
Cc1ccccc1[C@@H]1C[C@H]2CC[C@@H](C1)N2C(=O)CSCc1c(C)noc1C [Compound 26b] |  |  | IC50 [1]: 8 µM and 7.9 µM
Cc1ccc(Cl)cc1N1CCN(C(=O)[C@H]2C[C@H]2c2ccc(F)cc2)CC1 [JJ-450A, (4-(5-chloro-2-methylphenyl)piperazin-1-yl)((1S,2R)-2-(4-fluorophenyl)cyclopropyl)methanone] | 1.6 ± 0.1 | significantly more potent than 1 | 
Cc1ccc(Cl)cc1N1CCN(C(=O)[C@@H]2C[C@@H]2c2ccc(F)cc2)CC1 [JJ-450B, (4-(5-Chloro-2-methylphenyl)piperazin-1-yl)((1R,2S)-2-(4-fluorophenyl)cyclopropyl)-methanone] | 13.1 ± 1.8 |  | 
CNC(=O)c1ccc(N2C(=S)N(c3ccc(C#N)c(C(F)(F)F)c3)C(=O)C2(C)C)cc1F [MDV3100, enzalutamide] |  |  | effectiveness against 22Rv1 (22Rv1): ineffective
